# What was measured:
# [1] = molecular target: Cannabinoid CB1 (Homo sapiens, UniProt P21554); assay: Eurofins radioligand binding
# [2] = rat oral dose escalation PK study; assay type: in vivo; settings: for AUC(0-t) / Cmax / AUC / Tmax: Sprague-Dawley, plasma; for Cmax / AUC / Tmax: rat, po
# Protocol: Pharmacokinetic profiles in rats following oral single escalating doses Single escalating oral dosing in Sprague-Dawley rats was performed at Frontage Laboratories according to their non-GLP Standard Operating Procedure and IACUC protocols. In short, […]
# arterial blood was collected from a femoral artery catheter, and compound concentration was determined in plasma by LC-MS/MS following their non-GLP protocol. PK parameters were determined using Phoenix WinNonlin software (version 6.3). […]
# [3] = molecular target: CYP 3A4 (Homo sapiens, UniProt P08684); assay: CYP450 inhibition; assay type: in vitro ADME
# [4] = molecular target: Bradykinin B2 (Homo sapiens, UniProt P30411); assay: Eurofins radioligand binding
# [5] = tested on: Sodium Channel, Site 2; assay: Eurofins radioligand binding; settings: Site 2, Rat
# [6] = molecular target: Dopamine D2S (Homo sapiens, UniProt P14416); assay: Eurofins radioligand binding
# [7] = tested on: Rolipram; assay: Eurofins radioligand binding; settings: Rat
# [8] = molecular target: Melatonin MT1 (Homo sapiens, UniProt P48039); assay: Eurofins radioligand binding
# [9] = human PK and dose predictions (geometric mean of six methods)
# Protocol: The predicted dose for 7 ranged from 32 to 84 mg QD. Based on this analysis, PAM 7 was advanced to safety and ADME studies.
# [10] = molecular target: T1, hERG (Homo sapiens, UniProt Q12809); assay: functional hERG manual patch clamp (MPC) assay; assay type: cell-based
# T1 construct: Charles River
# [11] = tested on: 3A4; assay: CYP induction repeated at a different CRO (mRNA and protein); assay type: cell-based; settings: result in words
# [12] = tested on: C57Bl/6 mice; assay: phenotypic seizure liability assay (Racine scale); assay type: in vivo, mouse
# Protocol: min, with an isocratic hold for 0.5 min, before transitioning to 10% B over 0.05 min. The column was re-equilibrated (1 min) before the next sample injection. The total run time was 2.55 min, and the HPLC flow rate was 0.5 ml/min. The source temperature was set at 500 °C, and mass spectral analyses were performed using a Turbo-Ion spray source in positive ionization mode (5.0-kV spray voltage) and using multiple-reaction monitoring of transitions specific for the analytes. All data were analyzed using AB Sciex Analyst 1.5.1 software.
# Brain plasma concentration ratio (Kp) was calculated by dividing brain concentration by plasma concentration for each animal. Unbound brain to unbound plasma concentration ratio (Kp,uu) is calculated using the following formula: Kp,uu = (Brain ng/g x brain fu)/(plasma ng/ml x plasma fu).
# Pharmacokinetic profiles in rats following oral single escalating doses Single escalating oral dosing in Sprague-Dawley rats was performed at Frontage Laboratories according to their non-GLP Standard Operating Procedure and IACUC protocols. In short, compounds were formulated in 10% Tween 80 in water and dosed at 10 mg/kg. At different times, arterial blood was collected from a femoral artery catheter, and compound concentration was determined in plasma by LC-MS/MS following their non-GLP protocol. PK parameters were determined using Phoenix WinNonlin software (version 6.3). […]
# Blood-brain barrier penetration was determined using MDR1-MDCK cell monolayers by Absorption Systems, following their protocol. […] Compounds concentration on either side of the monolayer was determined by LC-MS/MS and apparent permeability and efflux ratio were determined as described in Wang, Q. et al.1 […]
# To evaluate induction of behavioral manifestation of seizure activity, C57Bl/6 mice received administration of vehicle or 100 mg/kg M1 PAM 5. […] Animals were monitored continuously and scored for behavioral manifestations of seizure activity at 5, 15, 30 min, and 1 h. Behavioral manifestations of seizures were scored using a modified Racine scoring system. […]
# [13] = molecular target: Bradykinin B1 (Homo sapiens, UniProt P46663); assay: Eurofins radioligand binding
# [14] = molecular target: Dopamine D1 (Homo sapiens, UniProt P21728); assay: Eurofins radioligand binding
# [15] = 10 mg/kg, rat PO 10 mpk, 10% Tween
# [16] = 10 mg/kg, rat PO 10 mpk, 100% PEG
# [17] = 30 mg/kg, rat PO 30 mpk, 10% Tween
# [18] = 30 mg/kg, rat PO 30 mpk, 100% PEG
# [19] = 100 mg/kg, rat PO 100 mpk, 10% Tween
# [20] = 100 mg/kg, rat PO 100 mpk, 100% PEG
# Chain of Bradykinin B1 (P46663 whole entry): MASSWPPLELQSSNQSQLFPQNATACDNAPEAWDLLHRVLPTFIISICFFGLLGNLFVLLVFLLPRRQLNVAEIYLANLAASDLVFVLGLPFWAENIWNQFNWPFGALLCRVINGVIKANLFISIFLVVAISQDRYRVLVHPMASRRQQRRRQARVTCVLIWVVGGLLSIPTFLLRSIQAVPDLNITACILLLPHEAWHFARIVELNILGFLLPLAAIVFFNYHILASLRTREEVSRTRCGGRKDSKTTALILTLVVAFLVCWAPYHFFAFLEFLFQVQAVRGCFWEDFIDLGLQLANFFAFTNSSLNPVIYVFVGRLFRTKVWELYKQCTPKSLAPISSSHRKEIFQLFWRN
# Chain of Bradykinin B2 (P30411 whole entry): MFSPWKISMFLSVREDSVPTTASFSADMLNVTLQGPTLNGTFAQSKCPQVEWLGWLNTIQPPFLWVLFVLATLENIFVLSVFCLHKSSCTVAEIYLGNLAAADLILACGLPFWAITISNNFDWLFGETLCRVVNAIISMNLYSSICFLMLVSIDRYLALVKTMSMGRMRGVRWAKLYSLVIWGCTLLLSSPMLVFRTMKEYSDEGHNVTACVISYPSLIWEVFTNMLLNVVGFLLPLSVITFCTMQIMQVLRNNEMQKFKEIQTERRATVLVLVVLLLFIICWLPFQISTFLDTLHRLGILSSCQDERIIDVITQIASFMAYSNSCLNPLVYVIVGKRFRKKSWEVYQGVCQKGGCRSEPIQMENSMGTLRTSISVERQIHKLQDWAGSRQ
# Chain of CYP 3A4 (P08684 whole entry): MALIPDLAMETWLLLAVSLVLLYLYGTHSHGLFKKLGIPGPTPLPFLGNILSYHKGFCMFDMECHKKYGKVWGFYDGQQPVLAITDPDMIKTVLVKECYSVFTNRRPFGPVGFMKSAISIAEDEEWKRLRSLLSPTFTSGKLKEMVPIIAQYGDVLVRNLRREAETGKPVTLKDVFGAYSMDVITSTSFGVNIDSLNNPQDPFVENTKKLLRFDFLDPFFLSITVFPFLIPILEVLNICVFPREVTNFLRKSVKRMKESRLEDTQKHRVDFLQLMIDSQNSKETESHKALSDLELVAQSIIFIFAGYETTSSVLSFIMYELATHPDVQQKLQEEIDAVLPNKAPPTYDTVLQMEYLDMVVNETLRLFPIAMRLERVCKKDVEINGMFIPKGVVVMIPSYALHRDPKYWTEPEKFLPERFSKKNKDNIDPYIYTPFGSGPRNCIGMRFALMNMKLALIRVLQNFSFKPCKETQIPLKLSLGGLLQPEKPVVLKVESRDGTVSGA
# Chain of Dopamine D1 (P21728 whole entry): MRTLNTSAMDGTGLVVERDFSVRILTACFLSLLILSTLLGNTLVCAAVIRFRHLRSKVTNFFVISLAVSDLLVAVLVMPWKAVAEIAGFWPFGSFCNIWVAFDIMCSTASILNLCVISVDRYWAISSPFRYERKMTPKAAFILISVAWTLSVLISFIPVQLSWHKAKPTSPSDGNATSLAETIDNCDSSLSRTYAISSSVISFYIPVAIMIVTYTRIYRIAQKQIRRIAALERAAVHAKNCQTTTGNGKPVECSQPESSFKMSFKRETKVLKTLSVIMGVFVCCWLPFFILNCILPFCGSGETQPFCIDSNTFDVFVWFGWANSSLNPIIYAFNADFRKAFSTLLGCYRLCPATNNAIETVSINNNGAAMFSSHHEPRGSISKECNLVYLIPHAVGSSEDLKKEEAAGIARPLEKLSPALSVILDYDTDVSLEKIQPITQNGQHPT
# Chain of Melatonin MT1 (P48039 whole entry): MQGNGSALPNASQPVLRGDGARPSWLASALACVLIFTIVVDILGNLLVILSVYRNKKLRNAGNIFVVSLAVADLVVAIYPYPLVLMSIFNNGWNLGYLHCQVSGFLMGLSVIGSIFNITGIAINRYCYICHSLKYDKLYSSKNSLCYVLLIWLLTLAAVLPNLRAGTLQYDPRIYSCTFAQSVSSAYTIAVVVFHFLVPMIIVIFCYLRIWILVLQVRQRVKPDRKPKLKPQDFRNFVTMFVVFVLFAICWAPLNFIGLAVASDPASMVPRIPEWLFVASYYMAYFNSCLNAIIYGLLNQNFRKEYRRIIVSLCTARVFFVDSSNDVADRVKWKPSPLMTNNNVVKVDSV
# T1 sequence (Q12809 whole entry): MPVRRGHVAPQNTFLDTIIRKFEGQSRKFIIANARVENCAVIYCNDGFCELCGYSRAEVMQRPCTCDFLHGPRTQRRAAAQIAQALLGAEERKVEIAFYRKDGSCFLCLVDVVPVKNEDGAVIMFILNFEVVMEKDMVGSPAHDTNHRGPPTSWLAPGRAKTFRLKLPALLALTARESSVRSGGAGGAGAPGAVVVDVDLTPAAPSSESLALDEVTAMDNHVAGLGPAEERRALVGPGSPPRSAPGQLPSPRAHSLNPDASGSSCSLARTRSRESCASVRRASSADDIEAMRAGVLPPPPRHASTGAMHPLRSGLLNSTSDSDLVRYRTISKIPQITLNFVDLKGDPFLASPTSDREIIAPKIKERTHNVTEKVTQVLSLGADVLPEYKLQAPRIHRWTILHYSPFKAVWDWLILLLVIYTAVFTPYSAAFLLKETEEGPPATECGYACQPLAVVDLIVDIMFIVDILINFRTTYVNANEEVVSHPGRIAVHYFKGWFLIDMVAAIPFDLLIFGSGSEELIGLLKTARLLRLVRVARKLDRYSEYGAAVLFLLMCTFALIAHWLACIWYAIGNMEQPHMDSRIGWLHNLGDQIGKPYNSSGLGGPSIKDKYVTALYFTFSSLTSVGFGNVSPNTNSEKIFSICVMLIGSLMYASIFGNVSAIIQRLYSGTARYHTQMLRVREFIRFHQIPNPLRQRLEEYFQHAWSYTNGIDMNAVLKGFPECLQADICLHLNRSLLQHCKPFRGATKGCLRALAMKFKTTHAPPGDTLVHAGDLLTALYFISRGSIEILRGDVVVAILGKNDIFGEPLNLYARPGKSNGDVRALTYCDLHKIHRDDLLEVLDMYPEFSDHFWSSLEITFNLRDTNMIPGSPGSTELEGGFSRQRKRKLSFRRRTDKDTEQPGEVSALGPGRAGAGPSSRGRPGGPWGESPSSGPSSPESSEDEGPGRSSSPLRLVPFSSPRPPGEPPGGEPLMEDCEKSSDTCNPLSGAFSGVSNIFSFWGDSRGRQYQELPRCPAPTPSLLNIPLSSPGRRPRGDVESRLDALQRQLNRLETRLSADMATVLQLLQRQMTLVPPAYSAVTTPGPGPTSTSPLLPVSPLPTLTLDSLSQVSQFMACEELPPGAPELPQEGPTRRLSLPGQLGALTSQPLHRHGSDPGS
# Chain of Dopamine D2S (P14416 1-414 isoform P14416-2): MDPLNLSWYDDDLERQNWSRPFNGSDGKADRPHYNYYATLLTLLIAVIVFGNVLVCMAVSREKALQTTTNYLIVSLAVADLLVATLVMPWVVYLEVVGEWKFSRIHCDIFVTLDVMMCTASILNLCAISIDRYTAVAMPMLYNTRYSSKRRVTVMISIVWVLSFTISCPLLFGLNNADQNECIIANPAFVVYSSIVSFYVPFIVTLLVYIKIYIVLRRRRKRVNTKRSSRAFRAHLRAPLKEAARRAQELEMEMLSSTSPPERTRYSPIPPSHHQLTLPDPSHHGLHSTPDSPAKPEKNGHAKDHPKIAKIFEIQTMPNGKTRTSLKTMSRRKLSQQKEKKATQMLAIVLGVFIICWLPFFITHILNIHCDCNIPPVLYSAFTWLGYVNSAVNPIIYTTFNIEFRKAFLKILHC
# Chain of Cannabinoid CB1 (P21554 whole entry): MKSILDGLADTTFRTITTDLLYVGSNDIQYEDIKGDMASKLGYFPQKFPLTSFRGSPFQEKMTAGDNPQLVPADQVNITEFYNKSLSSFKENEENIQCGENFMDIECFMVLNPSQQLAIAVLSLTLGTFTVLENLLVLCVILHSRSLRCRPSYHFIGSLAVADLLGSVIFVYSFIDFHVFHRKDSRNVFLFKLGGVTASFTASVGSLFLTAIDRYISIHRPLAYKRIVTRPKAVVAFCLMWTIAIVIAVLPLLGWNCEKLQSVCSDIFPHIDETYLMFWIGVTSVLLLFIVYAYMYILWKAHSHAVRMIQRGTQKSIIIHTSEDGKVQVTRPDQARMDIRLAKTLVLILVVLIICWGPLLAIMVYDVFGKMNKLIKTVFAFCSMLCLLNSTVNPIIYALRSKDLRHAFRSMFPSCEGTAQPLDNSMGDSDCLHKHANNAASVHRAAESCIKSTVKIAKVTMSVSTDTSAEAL
smiles,measurement,setting,value
Cn1cc2c(-c3cc(F)c(CN4Cc5ncccc5C4=O)c(F)c3)ccc(C(C)(C)O)c2n1 [compound 7],inhibition at 10 µM,[1],25%
same,AUC(0-t),"[2]; rat PO 10 mg/kg, 10% aqueous Tween 80 suspension",23800 ng·h/mL
same,AUC(0-t),"[2]; rat PO 30 mg/kg, 10% aqueous Tween 80 suspension",66500 ng·h/mL
same,AUC(0-t),"[2]; rat PO 100 mg/kg, 10% aqueous Tween 80 suspension",96200 ng·h/mL
same,Cmax,"[2]; 10 mg/kg, rat PO 10 mg/kg, 10% aqueous Tween 80 suspension",2340 ng/mL
same,AUC,[2]; [15],23800 ng·h/mL
same,Tmax,[2]; [15],2.17 h
same,AUC,[2]; [16],20600 ng·h/mL
same,Cmax,[2]; [16],2390 ng/mL
same,Tmax,[2]; [16],3.33 h
same,Cmax,"[2]; 30 mg/kg, rat PO 30 mg/kg, 10% aqueous Tween 80 suspension",7640 ng/mL
same,AUC,[2]; [17],66700 ng·h/mL
same,Tmax,[2]; [17],2.67 h
same,AUC,[2]; [18],115000 ng·h/mL
same,Cmax,[2]; [18],12200 ng/mL
same,Tmax,[2]; [18],4 h
same,Cmax,"[2]; 100 mg/kg, rat PO 100 mg/kg, 10% aqueous Tween 80 suspension",10900 ng/mL
same,AUC,[2]; [19],96800 ng·h/mL
same,Tmax,[2]; [19],4 h
same,AUC,[2]; [20],316000 ng·h/mL
same,Cmax,[2]; [20],24700 ng/mL
same,Tmax,[2]; [20],4 h
same,cholinergic signs or adverse events in rat dose escalation,[2]; result in words,no cholinergic signs or adverse events were noted in rats
same,IC50,[3],> 30 µM
same,inhibition at 10 µM,[4],-18%
same,% Inhibition at 10 µM,[5],22%
same,inhibition at 10 µM,[6],-2%
same,% Inhibition at 10 µM,[7],61%
same,inhibition at 10 µM,[8],-1%
same,predicted human dose,[9]; QD,32 to 84 mg
same,predicted human CLp,[9]; geometric mean of six methods,2.6 mL/min/kg
same,predicted human Vss,[9]; geometric mean of six methods,1.16 L/kg
same,predicted human oral bioavailability,[9]; geometric mean of six methods,79%
same,predicted human t1/2,[9]; geometric mean of six methods,5.1 h
same,IC50,[10],> 30 µM
same,"3A4 induction, mRNA and protein",[11],not to be an inducer of 3A4
same,AEs in seizure liability assay,"[12]; 56.6 mg/kg IP, mice, result in words",negligible AEs
same,Racine scale scores,"[12]; 100 mg/kg IP, mice",less than 2
same,AEs in Racine score test,"[12]; 56.6 and 100 mg/kg, i.p., 360 min, male C57Bl/6 mice, result in words",minimal AEs at 60 min postadministration with a lack of AEs observed at 6 h
same,inhibition at 10 µM,[13],0%
same,inhibition at 10 µM,[14],6%

# — publication PMC12715762, “Discovery of VU6052254: A Novel, Potent M1 Positive Allosteric Modulator” (ACS Chemical Neuroscience, 2025)
